For series [1], the system named is tomato leaf transpiration. Kind of series: Tomato leaf transpiration inhibition after foliar spray (LI-1600 porometer). It is filed as in vivo, Tomato (variety: Rutgers). The note with it: for Transpiration rate (% of control), 1 day after treatment: day 1; for Transpiration rate (% of control), 2 days after treatment: day 2; for Transpiration rate (% of control), 3 days after treatment: day 3; for Transpiration rate (% of control), 4 days after treatment: day 4; for Transpiration rate (% of control), 7 days after treatment: day 7; for ABA dose to achieve 50% inhibition of transpiration: from linear regression of 3-day average transpiration rate on log dose. Here is the method:
(§1) Preparation of plant specimens for use in the treatment studies of the EXAMPLES that follow was carried out as follows. Tomato (variety: Rutgers) seeds were sown in an 18-cell flat filled with Promix PGX (available from Premier Horticulture Inc., Quakertown Pa.) and grown for 3 weeks to allow for germination and initial growth. Plants were then transplanted into pots (18 cm in diameter and 18 cm in height), filled with Promix BX (available from Premier Horticulture Inc., Quakertown Pa.), and grown for one or two more weeks before treatment, depending on temperature and available light. Plants received daily irrigation and weekly fertilizer (1 g/L all purpose fertilizer 20-20-20, available from The Scotts Company, Marysville, Ohio).
(§2) All treatment solutions were made up with distilled water. The (S)-(+)-abscisic acid (95% active ingredient) is available from Lomon BioTechnology Co., Ltd. (Shichuan, China). The prior art aqueous solution composition of the ammonium salt of (S)-(+)-abscisic acid as prepared in Example 11 above was used as a positive treatment control for most of the studies.
(§3) All experiments were conducted using a randomized complete block experimental design. Solutions of (S)-(+)-abscisic acid and blank treatments (plain water) were applied by spray to the aerial parts of the tomato plants at the rate of 24 mL per 6 plants. Plants were then placed in a transparent chamber with humidity controlled within the range of 40 to 60% relative humidity. Leaf transpiration rates were measured at 1, 2, 3, 4 and 7 days after treatment. Measurements were conducted using a LI-1600 Steady State Porometer (LI-Cor, Lincoln, Nebr.). Each day the transpiration rate of the plants of each treatment group was normalized to a percentage of the transpiration rate of untreated plants (plants sprayed with water only) in order to control for day-to-day variability in plant status caused by changes of environmental conditions such as light intensity and temperature. Data for each plant was also averaged over a 3-day period to balance the short term and long term effect of (S)-(+)-abscisic acid on tomato leaf transpiration as well as to reduce experimental variability.
The regression equation of each (S)-(+)-abscisic acid salt as well as abscisic acid concentrations for 50% inhibition of transpiration were calculated. The relative potency of two ABA salts is the reciprocal of the ratio of (S)-(+)-abscisic acid concentration required for 50% transpiration inhibition for each composition.

The subject of series [2] is tomato shoot fresh weight. Kind of series: Tomato shoot fresh weight 7 days after treatment (growth suppression). The note with it: foliar spray. It is filed as in vivo, Tomato (variety: Rutgers). As to the method: as §1, §2, §3
In this experiment, the fresh weights of the aerial parts of the tomato plants were also measured at the end of the experiment, 7 days after treatments were applied, in order to assess the relative growth suppressing activity of the compositions.

In another series the test system is tomato plants. Nature of the series: Phytotoxicity observed on treated tomato plants. It is filed as in vivo, Tomato (variety: Rutgers). Here is the method: as §3, with “variability. It is important to note that no phytotoxicity was observed on any of the plants treated with the compositions of the present invention.” for “variability.”
For series [3] the following is noted: cited from earlier work.
The mark [4] stands for this setting: (S)-(+)-abscisic acid dose 0.3 mg, foliar spray.
[5] abbreviates: (S)-(+)-abscisic acid dose 1 mg, foliar spray.
Where [6] appears, read: (S)-(+)-abscisic acid dose 3 mg, foliar spray.
The mark [7] stands for this setting: (S)-(+)-abscisic acid dose 10 mg, foliar spray.
The mark [8] stands for this setting: foliar spray, 250 ppm (S)-(+)-abscisic acid (1 mg), additives as in label.
[9] abbreviates: reciprocal of ratio of doses for 50% transpiration inhibition.
Where [10] appears, read: 75 ppm (0.3 mg) (S)-(+)-abscisic acid.
The mark [11] stands for this setting: 250 ppm (1 mg) (S)-(+)-abscisic acid, additives as in label.
The mark [12] stands for this setting: 750 ppm (3 mg) (S)-(+)-abscisic acid.
[13] abbreviates: 2500 ppm (10 mg) (S)-(+)-abscisic acid.

Structures are written as SMILES. “And” between values parts separate entries of the source, which are not always exact repeats. Identical values can stand only once.

Regarding `CC1=CC(=O)CC(C)(C)[C@@]1(O)/C=C/C(C)=C\C(=O)[O-].CCCC[N+](CCCC)(CCCC)CCCC` [Example 4, Tetrabutylammonium Salt of (S)-(+)-Abscisic Acid], the “Transpiration rate (% of control), Average of 3 days after treatment” value in series [1] (setting [4]) is 84 % of control and 80 % of control; in series [1] (setting [5]) it was 72 % of control and 61 % of control; in series [1] (setting [6]), 56 % of control and 47 % of control; in series [1] (setting [7]), 38 % of control and 29 % of control. Moreover, the “Transpiration rate (% of control), 7-Day Average” value in series [1] (setting [8]) was 70.9 % of control. Moreover, the “Transpiration rate (% of control), 9-Day Average” value in series [1] (foliar spray, 250 ppm (S)-(+)-abscisic acid (1 mg), additives as in label, 9-day average) is listed as 79.7 % of control. Moreover, in series [1] (setting [8]), the “Transpiration rate (% of control), 1 day after treatment” value was 63.4 % of control and 55.1 % of control. Moreover, the “Transpiration rate (% of control), 2 days after treatment” value in series [1] (setting [8]) is 73.9 % of control and 61.0 % of control. Further, the “Transpiration rate (% of control), 3 days after treatment” value in series [1] (setting [8]) was 77.8 % of control and 68.3 % of control. Besides, the “Transpiration rate (% of control), 4 days after treatment” value in series [1] (setting [8]) is 79.3 % of control and 77.6 % of control. Also, the “Transpiration rate (% of control), 7 days after treatment” value in series [1] (setting [8]) was 89.2 % of control and 92.4 % of control. The “Transpiration rate (% of control), 9 days after treatment” value in series [1] (foliar spray, 250 ppm (S)-(+)-abscisic acid (1 mg), additives as in label, day 9) is 94.6 % of control. Also, in series [1], the “ABA dose to achieve 50% inhibition of transpiration” value is 4.35 mg and 2.33 mg. Also, in series [1] (setting [9]), the “Relative potency compared to the tributylamine salt composition of Comparative Example 14” value is given as 1.9 times. Moreover, the “Fresh weight (g) 7 days after treatment” value in series [2] (setting [10]) is 15.3 g; in series [2] (setting [11]), 14.8 g; in series [2] (setting [12]) it was 12.5 g; in series [2] (setting [13]), 11.4 g. In addition, the Phytotoxicity result in the series with tomato plants (tomato plants after foliar spray) was “without producing phytotoxicity”.

For the compound `CC1=CC(=O)CC(C)(C)[C@@]1(O)/C=C/C(C)=C\C(=O)[O-].C[N+](C)(C)CCO` [Example 5, Choline Salt of (S)-(+)-abscisic Acid], the “Transpiration rate (% of control), Average of 3 days after treatment” value in series [1] (setting [4]) was 78 % of control; in series [1] (setting [5]), 63 % of control; in series [1] (setting [6]), 53 % of control; in series [1] (setting [7]), 41 % of control. The “Transpiration rate (% of control), 7-Day Average” value in series [1] (setting [8]) is 72.5 % of control. Moreover, the “Transpiration rate (% of control), 1 day after treatment” value in series [1] (setting [8]) was 52.3 % of control. Also, the “Transpiration rate (% of control), 2 days after treatment” value in series [1] (setting [8]) was 63.7 % of control. The “Transpiration rate (% of control), 3 days after treatment” value in series [1] (setting [8]) is reported as 73.8 % of control. In addition, the “Transpiration rate (% of control), 4 days after treatment” value in series [1] (setting [8]) is 79.0 % of control. For the same compound, the “Transpiration rate (% of control), 7 days after treatment” value in series [1] (setting [8]) is reported as 93.4 % of control. Also, the “ABA dose to achieve 50% inhibition of transpiration” value in series [1] stood at 4.02 mg. In addition, in series [1] (setting [9]), the “Relative potency compared to the ammonium salt composition of Comparative Example 11” value was 2.6 times and 4.2 times. For the same compound, the “Fresh weight (g) 7 days after treatment” value in series [2] (setting [10]) is 18.2 g; in series [2] (setting [11]), 17.5 g; in series [2] (setting [12]), 16.8 g; in series [2] (setting [13]), 16.0 g. In the series with tomato plants (in vivo), the Phytotoxicity entry is listed as “without producing phytotoxicity”.

Regarding `CC1=CC(=O)CC(C)(C)[C@@]1(O)/C=C/C(C)=C\C(=O)O` [abscisic acid, 2-cis-,4-trans-(S)-(+)-abscisic acid], the “Solubility in propylene glycol” value in series [3] (propylene glycol) is “poorly soluble”. In addition, the “Solubility in water (highest concentration achievable)” value in series [3] (pure water, room / ordinary ambient temperature) is at most 3000 ppm.

(Values after patent publication US8278480B2, “Salts, aqueous liquid compositions containing salts of S-(+)-abscisic acid and methods of their preparation” (Valent BioSciences Corporation, priority 2008, dated 2012).)
